Laboratory results: patent US12281118B2, “Nitrogen-containing fused heterocyclic SHP2 inhibitor compound, preparation method, and use” (SHANGHAI RINGENE BIOPHARMA CO., LTD., priority 2018, dated 2025)

Key:
[1] = molecular target: SHP2 enzyme (Homo sapiens (Human), UniProt Q06124); test: Inhibitory activity against SHP2 enzyme (Caliper conversion rate); format: biochemical; details: read-out: SHP2 Enzyme Inhibition IC50 Value
Protocol: (1) Preparing 1×Reaction Buffer according to the BPS Biosciences' Instructions for Use of the SHP2 enzyme. (2) Preparing a compound concentration gradient: Test the test compound at 10 μM under 3× dilution for 10 concentrations, diluting to a 100% dimethyl sulfoxide solution at a 100× final concentration in a 384-well plate, and diluting the compound with Precision 4× for 10 concentrations. Transferring 250 nL of the compound at the 100× final concentration to a target plate OptiPlate-384F using a dispenser Echo 550. […] (3) Preparing the activation peptide solution at a 5× final concentration with the 1×Reaction Buffer, adding 5 μL of the solution to a reaction plate, respectively, and centrifuging at 1000 rpm for 1 min. (4) Preparing an enzyme solution at a 2.5× final concentration with the 1×Reaction Buffer, adding 10 μL of the solution to the reaction plate, respectively, centrifuging at 1000 rpm for 1 min, and incubating at room temperature for 60 min. (5) Preparing a substrate peptide solution at a 2.5× final concentration with the 1×Reaction Buffer, centrifuging at 1000 rpm for 1 min, and incubating at room temperature for 30 min. (6) Adding 30 μL of stop test solution to stop the reaction, centrifuging at 1000 rpm for […], and mixing well by shaking. (7) Reading the conversion rate with a Caliper EZ Reader. (7) Data analysis:
Wherein: Conversion %/_sample is the reading of a conversion rate of a sample; Conversion %_min: mean of negative control wells, which represents the reading of a conversion rate in absence of enzyme activity wells; Conversion %_max: mean of a ratio of positive control wells, which represents the reading of a conversion rate in absence of compound inhibition wells.

[2] = test system: H358 (lung cancer cells); test: Cell proliferation inhibition, MTT; format: cell-based; details: Homo sapiens, NCI-H358
Protocol: (§1) Incubating cells such as KYSE520 (oesophageal cancer cells), H358 (lung cancer cells), Colo-205 (colorectal cancer cells), MiaPaca-2 (pancreas cancer cells), MOLM 13 (leukemia cells), NCI—H 1666 (lung cancer cells), NCI—H 508 (lung cancer), KATO III (gastric cancer), HEK 293A (normal cells), H3255 (lung cancer), H1975 (lung cancer), PC-9 (lung cancer), A549 (lung cancer), SNU16 (gastric cancer), and H1299 (lung cancer) in a 96-well plate at 100 µl/well and 20,000 cells/mL, and supplementing 10% fetal bovine serum and 1% penicillin/streptomycin sulfate. With 0.5% dimethyl sulfoxide as a blank control, treating the cells in a solution of the test compounds under 3× dilution at an initial concentration of 10 μM in eight gradients, and incubating the plate in an incubator with 5% CO2 for a certain period of time. At the end of the incubation, adding 10 μL of an MTT stock solution (5 mg/mL) to each well. Incubating the plates at 37° C. for 4 hours, and then removing the culture medium. Adding the dimethyl sulfoxide (100 μL) to each well, and then shaking well. Measuring the absorbance of a formazan product at 570 nm on a Thermo Scientific Varioskan Flash multi-mode reader. Fitting dose-response data to a three-parameter nonlinear regression model using GraphPad Prism 6.0 software to obtain IC50 values.

[3] = test system: KATO III (gastric cancer); test: Cell proliferation inhibition, MTT; format: cell-based; details: Homo sapiens
Protocol: as §1

[4] = test system: KYSE520 (oesophageal cancer cells); test: Cell proliferation inhibition, MTT; format: cell-based; details: Homo sapiens, KYSE-520
Protocol: as §1

[5] = test system: MOLM 13 (leukemia cells); test: Cell proliferation inhibition, MTT; format: cell-based; details: Homo sapiens
Protocol: as §1

[6] = test system: NCI-H 508 (lung cancer); test: Cell proliferation inhibition, MTT; format: cell-based; details: Homo sapiens, NCI-H508
Protocol: as §1

[7] = test system: NCI-H1666 (lung cancer cells); test: Cell proliferation inhibition, MTT; format: cell-based; details: Homo sapiens
Protocol: as §1

[8] = test system: SNU16 (gastric cancer); test: Cell proliferation inhibition, MTT; format: cell-based; details: Homo sapiens; SNU 16
Protocol: as §1

[9] = molecular target: PTP1B (Homo sapiens (Human), UniProt P18031); test: Inhibitory activity against different phosphatases; format: biochemical; details: read-out: IC50 against phosphatase PTP1B
Protocol: (§2) Allowing compound solutions (10 μM, 3× dilution at eight gradients) of examples reacted with phosphatases such as SHP1, LMW-PTP, LYP, MKP3, PTP1B, PTPN2, PTPN6, VHR, CDC25A, PTPRR, etc. according to a similar method shown in Test Example 1 to test the inhibitory activity of the compounds on the phosphatases described above.

[10] = molecular target: SHP1 (Homo sapiens (Human), UniProt P29350); test: Inhibitory activity against different phosphatases; format: biochemical; details: read-out: IC50 against phosphatase SHP1
Protocol: as §2

[11] = in vitro; format: in vitro ADME; details: 1 μM compound
Protocol: Metabolic stability test: Incubating 150 μL of liver microsomes (final concentration 0.5 mg/mL) containing NADPH (final concentration 1 mM), 1 μM of test compound and a positive control midazolam or a negative control atenolol for metabolic stability, terminating the reaction with acetonitrile containing tinidazole at 0 min, 5 min, 10 min and 30 min, respectively, vortexing for 10 min, centrifuging at 15,000 rmp for 10 min, and injecting 50 μL of supernatant into a 96-well plate. Calculating the metabolic stability of the compounds by determining the relative reduction of a parent drug.

[12] = molecular target: CYP2C19 (Homo sapiens (Human), UniProt P33261); test: biochemical; format: in vitro ADME
Protocol: (§3) Direct inhibition test (DI test): Incubating 100 μL of human liver microsomes (final concentration 0.2 mg/mL) containing NADPH (final concentration 1 mM), 10 μM of compound, a positive inhibitor cocktail (ketoconazole 10 μM, quinidine 10 μM, sulfaphenazole 100 μM, a-naphthoflavone 10 μM, and tranylcypromine 1,000 μM), a negative control (BPS containing 0.1% dimethyl sulfoxide) and a mixed probe substrate (midazolam 10 μM, testosterone 100 μM, dextromethorphan 10 μM, diclofenac 20 μM, phenacetin 100 μM, and mephenytoin 100 μM) for direct inhibition, and terminating the reaction after 20 min of the incubation. Calculating the relative enzyme activity by measuring the relative production of metabolites.

[13] = molecular target: CYP2C9 (Homo sapiens (Human), UniProt P11712); test: biochemical; format: in vitro ADME
Protocol: as §3

[14] = molecular target: CYP2D6 (Homo sapiens (Human), UniProt P10635); test: biochemical; format: in vitro ADME
Protocol: as §3

[15] = molecular target: CYP3A4 (Homo sapiens (Human), UniProt P08684); test: biochemical; format: in vitro ADME
Protocol: as §3

[16] = monkey, monkeys liver microsomes

CYP3A4, sequence (P08684 whole entry): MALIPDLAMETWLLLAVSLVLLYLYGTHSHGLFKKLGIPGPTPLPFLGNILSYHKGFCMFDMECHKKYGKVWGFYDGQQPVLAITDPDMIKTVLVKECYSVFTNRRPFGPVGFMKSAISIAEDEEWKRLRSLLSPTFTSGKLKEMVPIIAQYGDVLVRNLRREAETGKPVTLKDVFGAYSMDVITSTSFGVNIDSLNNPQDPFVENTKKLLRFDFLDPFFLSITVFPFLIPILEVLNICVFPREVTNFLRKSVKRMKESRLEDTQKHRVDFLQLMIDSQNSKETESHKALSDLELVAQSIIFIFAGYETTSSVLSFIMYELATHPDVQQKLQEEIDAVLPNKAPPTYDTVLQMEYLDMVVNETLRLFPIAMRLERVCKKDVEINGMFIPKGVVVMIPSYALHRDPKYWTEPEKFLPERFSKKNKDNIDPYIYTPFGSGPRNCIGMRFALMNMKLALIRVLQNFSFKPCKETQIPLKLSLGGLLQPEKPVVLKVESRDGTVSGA
SHP2 enzyme, sequence (Q06124 whole entry): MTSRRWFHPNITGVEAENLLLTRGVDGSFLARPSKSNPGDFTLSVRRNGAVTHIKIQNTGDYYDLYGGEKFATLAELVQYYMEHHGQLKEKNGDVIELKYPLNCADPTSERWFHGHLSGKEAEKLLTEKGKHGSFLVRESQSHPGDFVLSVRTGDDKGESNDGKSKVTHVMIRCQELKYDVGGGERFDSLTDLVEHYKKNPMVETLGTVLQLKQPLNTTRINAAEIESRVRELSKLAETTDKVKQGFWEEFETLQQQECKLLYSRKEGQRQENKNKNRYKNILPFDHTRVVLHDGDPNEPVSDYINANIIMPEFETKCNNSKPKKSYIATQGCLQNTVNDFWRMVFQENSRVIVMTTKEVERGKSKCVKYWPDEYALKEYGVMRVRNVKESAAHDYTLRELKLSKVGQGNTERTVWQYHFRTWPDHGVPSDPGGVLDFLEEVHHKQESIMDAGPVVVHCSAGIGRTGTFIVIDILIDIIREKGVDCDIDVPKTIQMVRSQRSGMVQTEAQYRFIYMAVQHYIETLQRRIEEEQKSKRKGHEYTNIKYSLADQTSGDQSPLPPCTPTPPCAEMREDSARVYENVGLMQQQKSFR
SHP1, sequence (P29350 whole entry): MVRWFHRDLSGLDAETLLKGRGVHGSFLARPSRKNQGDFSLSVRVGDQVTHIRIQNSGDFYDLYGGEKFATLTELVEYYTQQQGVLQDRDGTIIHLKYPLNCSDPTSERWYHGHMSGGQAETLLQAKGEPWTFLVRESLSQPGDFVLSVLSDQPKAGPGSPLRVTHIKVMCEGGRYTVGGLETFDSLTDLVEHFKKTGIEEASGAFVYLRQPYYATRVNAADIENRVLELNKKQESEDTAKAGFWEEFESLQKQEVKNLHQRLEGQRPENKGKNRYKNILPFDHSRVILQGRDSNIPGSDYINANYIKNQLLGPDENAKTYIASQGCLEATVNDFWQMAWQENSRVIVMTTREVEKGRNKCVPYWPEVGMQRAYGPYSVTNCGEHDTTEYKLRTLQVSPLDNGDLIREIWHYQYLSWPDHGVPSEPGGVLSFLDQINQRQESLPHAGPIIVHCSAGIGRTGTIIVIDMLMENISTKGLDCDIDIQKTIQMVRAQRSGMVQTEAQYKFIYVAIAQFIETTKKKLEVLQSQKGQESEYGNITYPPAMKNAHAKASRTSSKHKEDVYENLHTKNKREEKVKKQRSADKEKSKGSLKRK
PTP1B, sequence (P18031 whole entry, species assumed): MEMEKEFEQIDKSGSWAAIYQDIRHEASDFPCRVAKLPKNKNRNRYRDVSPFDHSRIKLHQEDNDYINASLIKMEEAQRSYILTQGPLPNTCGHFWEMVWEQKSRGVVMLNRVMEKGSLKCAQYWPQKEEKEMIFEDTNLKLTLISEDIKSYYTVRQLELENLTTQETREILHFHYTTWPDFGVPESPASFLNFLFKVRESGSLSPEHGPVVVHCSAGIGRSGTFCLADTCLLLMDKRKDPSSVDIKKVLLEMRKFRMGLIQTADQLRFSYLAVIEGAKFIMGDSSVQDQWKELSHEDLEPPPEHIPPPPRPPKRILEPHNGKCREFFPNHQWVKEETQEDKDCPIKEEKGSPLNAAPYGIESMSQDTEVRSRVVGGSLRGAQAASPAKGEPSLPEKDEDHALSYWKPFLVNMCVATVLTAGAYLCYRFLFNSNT
CYP2D6, sequence (P10635 whole entry): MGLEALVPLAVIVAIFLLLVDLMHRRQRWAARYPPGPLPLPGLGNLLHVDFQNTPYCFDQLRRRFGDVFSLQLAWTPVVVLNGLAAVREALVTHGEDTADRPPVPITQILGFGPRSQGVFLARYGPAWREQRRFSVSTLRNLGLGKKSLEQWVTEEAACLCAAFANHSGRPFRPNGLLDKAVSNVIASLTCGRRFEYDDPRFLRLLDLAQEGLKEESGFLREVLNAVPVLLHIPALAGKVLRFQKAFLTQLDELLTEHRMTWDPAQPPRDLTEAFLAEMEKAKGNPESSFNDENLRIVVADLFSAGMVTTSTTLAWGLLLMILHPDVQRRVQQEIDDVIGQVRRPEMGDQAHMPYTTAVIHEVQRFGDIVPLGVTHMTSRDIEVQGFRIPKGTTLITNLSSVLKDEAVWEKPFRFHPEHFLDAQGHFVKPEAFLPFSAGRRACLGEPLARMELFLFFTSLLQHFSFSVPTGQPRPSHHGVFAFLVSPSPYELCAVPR
CYP2C19, sequence (P33261 whole entry): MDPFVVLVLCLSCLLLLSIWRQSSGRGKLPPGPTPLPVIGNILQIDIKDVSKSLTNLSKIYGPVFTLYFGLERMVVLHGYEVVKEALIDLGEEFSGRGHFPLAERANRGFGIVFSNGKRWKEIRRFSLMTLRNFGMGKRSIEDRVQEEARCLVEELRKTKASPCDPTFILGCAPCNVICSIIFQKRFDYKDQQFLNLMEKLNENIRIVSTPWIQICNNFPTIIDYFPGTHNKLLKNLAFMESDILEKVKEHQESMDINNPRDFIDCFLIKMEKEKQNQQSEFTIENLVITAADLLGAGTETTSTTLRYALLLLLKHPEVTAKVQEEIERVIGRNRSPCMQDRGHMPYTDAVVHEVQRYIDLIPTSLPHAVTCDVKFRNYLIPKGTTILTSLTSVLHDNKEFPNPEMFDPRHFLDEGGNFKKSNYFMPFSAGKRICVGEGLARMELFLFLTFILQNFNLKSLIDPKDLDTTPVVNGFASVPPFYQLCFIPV
CYP2C9, sequence (P11712 whole entry): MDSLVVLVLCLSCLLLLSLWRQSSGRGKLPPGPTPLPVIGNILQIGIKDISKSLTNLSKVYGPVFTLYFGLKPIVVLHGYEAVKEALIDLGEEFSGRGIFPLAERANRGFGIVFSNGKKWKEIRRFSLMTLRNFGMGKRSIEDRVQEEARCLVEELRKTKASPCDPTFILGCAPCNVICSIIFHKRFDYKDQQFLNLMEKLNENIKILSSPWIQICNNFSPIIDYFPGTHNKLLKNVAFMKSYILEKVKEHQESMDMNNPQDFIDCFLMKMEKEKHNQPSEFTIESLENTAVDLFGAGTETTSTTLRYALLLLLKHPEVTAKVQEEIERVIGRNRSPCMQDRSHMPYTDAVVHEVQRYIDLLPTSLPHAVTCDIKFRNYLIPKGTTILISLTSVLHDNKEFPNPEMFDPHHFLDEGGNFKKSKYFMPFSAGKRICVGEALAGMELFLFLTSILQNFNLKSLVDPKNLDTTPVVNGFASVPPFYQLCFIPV

In the case of Nc1nccc(Sc2c(N)nc(N3CCC4(CC3)Cc3ccccc3[C@H]4N)n3ccnc23)c1Cl [Example 4, (S)-1′-(7-amino-8-((2-amino-3-chloropyridin-4-yl)thio)imidazo [1,2-c]pyrimidin-5-yl)-1,3-dihydrospiro [indene-2,4′-piperidine]-1-amine], the IC50 [1] is reported as 0.0019 µM, the IC50 [2] is reported as under 0.1 µM and the IC50 [3] is reported as under 1 µM. For the same compound, the IC50 [4] was under 0.1 µM, the IC50 [5] was under 0.1 µM and the IC50 [6] was under 0.1 µM. For the same compound, the IC50 [7] was under 0.1 µM, the IC50 [8] was under 1 µM and the IC50 [9] was over 0.5 µM. The IC50 [10] was over 0.5 µM, the half-life at 1 μM ([11]; dog, dogs liver microsomes) was over 1 h and the half-life at 1 μM ([11]; human liver microsomes) was over 1 h. For the same compound, the half-life at 1 μM [11, 16] was over 1 h, the half-life at 1 μM ([11]; mouse, mice liver microsomes) was over 1 h and the half-life at 1 μM ([11]; rat, rats liver microsomes) was over 1 h. It also gave an IC50 [12] of over 25 µM, an IC50 [13] of over 25 µM and an IC50 [14] of over 25 µM. For the same compound, the IC50 [15] was over 25 µM.

With Cc1nc(N2CCC3(CC2)Cc2ccccc2[C@H]3N)n2ccnc2c1Sc1ccnc(N)c1Cl [Example 1, (S)-1′-(8-((2-amino-3-chloropyridin-4-yl)thio)-7-methylimidazo [1,2-c]pyrimidin-5-yl)-1,3-dihydrospiro [indene-2,4′-piperidine]-1-amine] the IC50 [1] was 0.0044 µM, the IC50 [2] was under 0.1 µM and the IC50 [3] was under 1 µM. It also gave an IC50 [4] of under 0.1 µM, an IC50 [5] of under 0.1 µM and an IC50 [6] of under 0.1 µM. It also gave an IC50 [7] of under 0.1 µM, an IC50 [8] of under 1 µM and an IC50 [9] of over 0.5 µM. For the same compound, the IC50 [10] was over 0.5 µM, the half-life at 1 μM ([11]; dog, dogs liver microsomes) was over 1 h and the half-life at 1 μM ([11]; human liver microsomes) was over 1 h. It also gave a half-life at 1 μM [11, 16] of over 1 h, a half-life at 1 μM ([11]; mouse, mice liver microsomes) of over 1 h and a half-life at 1 μM ([11]; rat, rats liver microsomes) of over 1 h. For the same compound, the IC50 [12] was over 25 µM, the IC50 [13] was over 25 µM and the IC50 [14] was over 25 µM. For the same compound, the IC50 [15] was over 25 µM.
